# Measured values as given in US20220031697A1, “Dose and regimen for an hdm2-p53 interaction inhibitor in hematological tumors” (Novartis AG, priority 2017, published 2022).
# Where two headings read alike, the source gives them in different places.
# Legend:
# [1] = test system: human SJSA-1 (osteosarcoma) xenograft; experiment: TGI PK/PD modelling, xenograft rat; format: in vivo; conditions: human SJSA-1 xenograft rat
# Experimental: Line at 120 ng/mL=95% tumor regression from human SJSA-1 xenograft rat. […] Calculation of average dose level (mg/day):
# (§1) To further support the 45 mg for HDM201, compartmental PK modeling was used to estimate the individual average concentration during cycle 1 for patients with hematological tumors treated at 45 mg on regimen 2C (FIG. 2). For all patients with measured PK, the estimated average drug concentrations during cycle 1 were above the most conservative average tumor stasis concentration of about 41 ng/mL per cycle determined from PKPD modeling of preclinical data (human SJSA-1 xenograft rat model).
# [2] = test system: human HSAX2655 (liposarcoma) PDX; experiment: TGI PK/PD modelling, PDX rat; format: in vivo
# Clinical PK = format: in vivo, human
# Experimental: Pharmacokinetic data have been evaluated throughout the course of the clinical study. […] Furthermore, an integrated analysis of all available HDM201 concentrations was conducted using a population approach. The PK of HDM201 was best described by a 1-compartment PK model with a delayed zero- and first-order absorption process, and a linear clearance. Body weight was identified as a statistically significant covariate on apparent central volume of distribution (Vc/F), in which Vc/F increased with increasing body weight.
# as §1
# [3] = test system: advanced TP53 wild-type (WT) leukemias; format: in vivo, human
# [4] = Regimen 1A 250 mg, cut-off 15 Jan. 2018
# [5] = Regimen 1A 250 mg, n=10, cut-off 15 Jan. 2018
# [6] = Regimen 1B 120 mg, n=23, cut-off 15 Jan. 2018
# [7] = Regimen 2C 45 mg, n=25, cut-off 15 Jan. 2018
structure (smiles),measurement,setting,value
"COc1ncc(-c2nc3c(n2C(C)C)[C@H](c2ccc(Cl)cc2)N(c2cc(Cl)cn(C)c2=O)C3=O)c(OC)n1 [HDM201, (S)-5-(5-Chloro-1-methyl-2-oxo-1,2-dihydro-pyridin-3-yl)-6-(4-chloro-phenyl)-2-(2,4-dimethoxy-pyrimidin-5-yl)-1-isopropyl-5,6-dihydro-1H-pyrrolo[3,4-d]imidazol-4-one]",Concentration for 95% tumor regression,[1],120 ng/mL
same,Average concentration for tumor stasis,[2],19 ng/mL
same,Estimated average drug concentration during cycle 1,"Clinical PK; 45 mg regimen 2C, all patients with measured PK, compartmental PK modeling",> 41 ng/mL
same,Dose proportionality of PK (AUClast and Cmax),"Clinical PK; over the dose range studied, preliminary assessment",approximately dose proportional
same,Count recovery time from C1D1,"[3]; CR patient, 1A 250 mg",48 days
same,Duration of CR/CRi,"[3]; CR patient, 1A 250 mg",50 days
same,Time to CR/CRi,"[3]; CR patient, 1A 250 mg",7 weeks
same,Count recovery time from C1D1,"[3]; CR patient, 1A 400 mg",40 days
same,Duration of CR/CRi,"[3]; CR patient, 1A 400 mg",23 days
same,Time to CR/CRi,"[3]; CR patient, 1A 400 mg",6 weeks
same,Count recovery time from C1D1,"[3]; CR patient, 2C 45 mg",32 days
same,Duration of CR/CRi,"[3]; CR patient, 2C 45 mg",152 days
same,Time to CR/CRi,"[3]; CR patient, 2C 45 mg",5 weeks
same,Duration of CR/CRi,"[3]; CRi patient, 1B 150 mg",51 days
same,Time to CR/CRi,"[3]; CRi patient, 1B 150 mg",11 weeks
same,Duration of CR/CRi,[3]; [4],50 to 125 days
same,Time to CR/CRi,[3]; [4],24 to 50 days
same,CR (patients),[3]; [5],1
same,CRi (patients),[3]; [5],1
same,BOR: CR,[3]; Regimen 1A (n = 15),2 (13) n (%)
same,BOR: CRi,[3]; Regimen 1A (n = 15),0 (0) n (%)
same,ORR (CR + CRi + PR),[3]; Regimen 1A (n = 15),2 (13) n (%)
same,Duration of CR/CRi,"[3]; Regimen 1B 120 mg, DoR censored, cut-off 15 Jan. 2018",1 day (DoR
same,Time to CR/CRi,"[3]; Regimen 1B 120 mg, cut-off 15 Jan. 2018",30 days
same,CR (patients),[3]; [6],1
same,CRi (patients),[3]; [6],0
same,BOR: CR,[3]; Regimen 1B (n = 6),0 (0) n (%)
same,BOR: CRi,[3]; Regimen 1B (n = 6),1 (17) n (%)
same,ORR (CR + CRi + PR),[3]; Regimen 1B (n = 6),1 (17) n (%)
same,Clinical activity,"[3]; Regimen 2A (2 weeks on/2 week off), doses up to 30 mg",without evidence of clinically meaningful activity
same,BOR: CR,[3]; Regimen 2A (n = 7),0 (0) n (%)
same,BOR: CRi,[3]; Regimen 2A (n = 7),0 (0) n (%)
same,ORR (CR + CRi + PR),[3]; Regimen 2A (n = 7),0 (0) n (%)
same,Count recovery time of the patient with CR,[3]; Regimen 2C 45 mg,32 days
same,Overall response rate,"[3]; Regimen 2C 45 mg, 7 patients with post-baseline assessment",57.1%
same,Time to CR/CRi,"[3]; Regimen 2C 45 mg, cut-off 15 Jan. 2018",34 to 49 days
same,CR (patients),[3]; [7],2
same,CRi (patients),[3]; [7],4
same,Duration of CRi,"[3]; Regimen 2C 45 mg, one of three CRi patients",40 days
same,Duration of complete response,"[3]; Regimen 2C 45 mg, one patient",152 days
same,BOR: CR,[3]; Regimen 2C (n = 7),1 (14) n (%)
same,BOR: CRi,[3]; Regimen 2C (n = 7),3 (43) n (%)
same,ORR (CR + CRi + PR),[3]; Regimen 2C (n = 7),4 (57) n (%)
same,Best percentage change in blast percentage in bone marrow (BM) aspirate,"[3]; Regimen 2C, AML patients, FIG. 1",strong efficacy
same,BOR: CR,[3]; Total (N = 35),3 (9) n (%)
same,BOR: CRi,[3]; Total (N = 35),4 (11) n (%)
same,ORR (CR + CRi + PR),[3]; Total (N = 35),7 (20) n (%)
